pIC50: −log10 of the molar value.
What was measured:
[1] = target: Type IV Phosphodiesterase (PDE IV); experiment: Effect on enzymatic activity of type IV phosphodiesterase (PDE IV); type: biochemical; conditions: crude enzyme from cytoplasmic fraction of human monocyte-like cell strain U937; 3H-cAMP substrate, 30° C., 15 minutes; read-out: PDE IV Inhibitory Activity: IC50
Protocol: PDE IV inhibitory activity of the compounds of the present invention was examined. […] Adv.
Effect on Enzymatic Activity of Type IV Phosphodiesterase (PDE IV)
After a test compound was added, the reaction mixture was incubated at 30° C. for 15 minutes, and then added with the substrate.

Row | pIC50 [1] | melting point [°C] | Compound
1 | 8.35 | 128 to 130 | COc1ccc(Cn2cnc3cnc(OCCCc4ccncc4)nc32)cc1OC1CCOC1 (centres unmarked) [compound 55]
2 | 8.89 | 115 to 117 | COc1ccc(Cn2c(C)nc3cnc(OCCCc4ccncc4)nc32)cc1OC1CCCC1 [compound 56]
3 | 8.85 | 152 to 153 | COc1ccc(Cn2cnc3c(N)nc(OCCCc4ccncc4)nc32)cc1OC1CCCC1 [compound 66]
4 | 9.12 | 138 to 140 | CNc1nc(OCCCc2ccncc2)nc2c1ncn2Cc1ccc(OC)c(OC2CCCC2)c1 [compound 72]
5 | 9.09 | 78 to 80 | COc1ccc(Cn2cnc3c(N(C)C)nc(OCCCc4ccncc4)nc32)cc1OC1CCCC1 [compound 82]
6 | 9.16 | 127 to 128 | CCNc1nc(OCCCc2ccncc2)nc2c1ncn2Cc1ccc(OC)c(OC2CCCC2)c1 [compound 83]
7 | 8.72 | 137 to 138 | COc1ccc(Cn2cnc3c(C)nc(NCc4ccncc4)nc32)cc1OC1CCCC1 [compound 84]
8 | 9.36 | 130 to 131 | CCCNc1nc(OCCCc2ccncc2)nc2c1ncn2Cc1ccc(OC)c(OC2CCCC2)c1 [compound 93]
9 | 7.82 | 85 to 88 | CCNc1nc(OCCCc2cc[n+]([O-])cc2)nc2c1ncn2Cc1ccc(OC)c(OC2CCCC2)c1 [compound 122]

The next lines start with the compound.

Row | Compound | pIC50 [1] | melting point [°C]
10 | COc1ccc(Cn2cnc3c(OCc4cccnc4)ncnc32)cc1OC1CCCC1 [compound 2] | 8.05 | –
11 | COc1ccc(Cn2c(C)nc3cnc(OCc4cccnc4)nc32)cc1OC1CCCC1 [compound 36] | 8.59 | –
12 | COc1ccc(Cn2c(C)nc3cnc(NCc4cccnc4)nc32)cc1OC1CCCC1 [compound 37] | 9.00 | –
13 | COc1ccc(Cn2cnc3cnc(NCc4cccs4)nc32)cc1OC1CCCC1 [compound 41] | 9.33 | 141 to 142
14 | COc1ccc(Cn2c(C)nc3cnc(NCc4ccc(OCC(F)(F)F)nc4)nc32)cc1OC1CCCC1 [compound 77] | 9.08 | 125 to 127
15 | COc1ccc(Cn2cnc3c(N(C)C)nc(OCc4ccoc4)nc32)cc1OC1CCCC1 [compound 88] | 9.70 | 92 to 93
16 | COc1ccc(Cn2c(C)nc3c(C)nc(OCc4ccncc4)nc32)cc1OC1CCCC1 [compound 95] | 8.77 | 125 to 126
17 | CCNc1nc(OCc2cccnn2)nc2c1ncn2Cc1ccc(OC)c(OC2CCCC2)c1 [compound 96, 9-[(3-cyclopentyloxy-4-methoxy)benzyl]-6-ethylamino-2-[(3-pyridazinyl)methyloxy]purine] | 8.42 | 121 to 122
18 | COc1ccc(Cn2c(C)nc3c(C)nc(OCc4cc[n+]([O-])cc4)nc32)cc1OC1CCCC1 [compound 102] | 7.82 | 157 to 158
19 | COc1ccc(Cn2cnc3c(N(C)C)nc(NCc4cccnc4)nc32)cc1OC1CCCC1 [compound 104] | 8.96 | 112 to 114
20 | COc1ccc(Cn2c(C)nc3c(C)nc(OCc4cc(C)nn4C)nc32)cc1OC1CCCC1 [compound 112] | 9.66 | 112 to 123
21 | COc1ccc(Cn2c(C)nc3c(C)nc(NCc4cccnn4)nc32)cc1OC1CCCC1 [compound 113] | 7.62 | 164 to 166
22 | COc1ccc(Cn2c(C)nc3c(C)nc(SCc4cccnc4)nc32)cc1OC1CCCC1 [compound 119] | 9.19 | 116 to 117
23 | CCNc1nc(Cl)nc2c1ncn2Cc1ccc(OC)c(OC2CCCC2)c1 [compound 134] | 7.39 | 129 to 131
24 | COc1ccc(Cn2cnc3ncnc(OCc4cccnc4)c32)cc1OC1CCCC1 [compound 137] | 7.19 | 143 to 145
25 | COc1ccc(Cn2cnc3ncnc(Oc4cccnc4)c32)cc1OC1CCCC1 [compound 139] | 7.27 | 134 to 135
